Measured values reported in PMC3071021 (Bioorganic & medicinal chemistry letters, 2011).

Experiments:
Jurkat cells = experiment: Standard MTT assay, Jurkat cells; format: cell-based; conditions: listed as CD4.M3
[1] = test system: T6-17 (HER2/neu expressing cells); experiment: Standard MTT assay, T6-17 cells; format: cell-based; conditions: listed as CD4.M3

Substance: [Cys^3-Cys^12]-HAbuFCYIGEVEDQCY-OH (disulfide) [CD4, reference compound]
- % inhibition of cell growth (Jurkat cells): unaffected
- % inhibition of cell growth [1]: unaffected
